Reference: patent US4950739A (priority 1988, dated 1990)
Where two headings read alike, the source gives them in different places.

Assays:
[1] = tested on: low-threshold calcium channel in central neurons; details: Tang C-M., et al., Science, 240:213; cited from earlier work
[2] = tested on: calcium channel in vesicles; test: Calcium uptake into quin-2-loaded vesicles (fluorescence)
[3] = tested on: calcium channel reconstituted in a lipid bilayer; format: biochemical, guinea pig; details: for concentration at which single channels were blocked: cerebellar-origin channel, 80 mM BaCl2 cis / 120 mM CsCl trans; for calcium channel activity of the reconstituted channel: concentration not given
[4] = tested on: low-threshold calcium channel; test: Low-threshold calcium channel isolated on amiloride gel, lipid bilayer; format: biochemical, Guinea pig; details: 250micromolar
Procedure: Guinea pig cerebellar material was processed as in Example 7. It was then purified according to the method of Example 8 except that the amiloride gel chromatography was performed after the factor-coupled gel chromatography. (The latter chromatographic purification was thus used to remove the high-threshold channel recognized by the active factor of the present invention.)
The low-threshold calcium channel was eluted from the amiloride gel using 400 mM sucrose, 10 mM HEPES (pH 7.4) containing 1 mM amiloride.
The channel activity of the thus-purified gel was tested as described above by the lipid bilayer technique. The channel has an estimated conductance of about 8 pS, is characterized by rapid openings (of the order of 1-100 msec at […]), is rapidly inactivated (within about 1 sec at the same depolarization), and was blocked by cadmium (250micromolar).

N=C(N)NC(=O)c1nc(Cl)c(N)nc1N [amiloride, 3,5-diamino-N-(aminoiminomethyl)-6-chloropyrazine carboxamide]
block of low-threshold calcium channel [1]: specifically blocks

[Cd] [cadmium]
uptake of calcium into the vesicles ([2]; 50 micromolar, calcium 2 mM additions): blocked
intravesicular fluorescence over time ([2]; 100 micromolar before addition of 2 mM CaCl2): did not increase with time and remained at the baseline
concentration at which single channels were blocked [3]: less than 100 micromolar
calcium channel activity of the reconstituted channel [3]: blocked
calcium channel activity of the reconstituted channel ([3]; listed as Cd^++): completely blocked
low-threshold channel activity [4]: blocked

COC(=O)C1=C(C)NC(C)=C(C(=O)OC)C1c1ccccc1[N+](=O)[O-] [nifedipine]
effect on the isolated calcium channels ([3]; 5×10^-6 M): neither blocker had an effect

[Co] [cobalt]
Calcium Conductance ([3]; 100 mM CaCl2 pH 7.5 and 20 M × 10^-6 Co^++ outside only, voltage range ±200): none
concentration at which single channels were blocked [3]: less than 100 micromolar
calcium channel activity of the reconstituted channel [3]: blocked
calcium channel activity of the reconstituted channel ([3]; listed as Co^++): completely blocked
